Reference: PubChem BioAssay (NCI)
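Results reflect a 48-hour exposure of cells in 96-well plates to compound at five concentrations. TGI denotes the concentration required for complete inhibition of growth.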

Assays:
Assay in all cases: DTP human tumour cell line panel, 48 h
UACC-62 melanoma = tested on: UACC-62 melanoma
OVCAR-5 ovarian = tested on: OVCAR-5 ovarian
SK-MEL-28 melanoma = tested on: SK-MEL-28 melanoma
SNB-19 CNS = tested on: SNB-19 CNS
MDA-N = tested on: MDA-N
OVCAR-3 ovarian = tested on: OVCAR-3 ovarian
HCC-2998 colon = tested on: HCC-2998 colon
HOP-92 NSCLC = tested on: HOP-92 NSCLC
SK-MEL-5 melanoma = tested on: SK-MEL-5 melanoma
SF-539 CNS = tested on: SF-539 CNS
MDA-MB-435 = tested on: MDA-MB-435
IGROV1 ovarian = tested on: IGROV1 ovarian
CCRF-CEM leukemia = tested on: CCRF-CEM leukemia
NCI-H23 lung = tested on: NCI-H23 lung
T-47D breast = tested on: T-47D breast
SF-268 CNS = tested on: SF-268 CNS
SK-MEL-2 melanoma = tested on: SK-MEL-2 melanoma
NCI-H226 lung = tested on: NCI-H226 lung
RXF 393 renal = tested on: RXF 393 renal
DU-145 prostate = tested on: DU-145 prostate

Row | Compound | TGI (UACC-62 melanoma) [µM] | TGI (OVCAR-5 ovarian) [µM] | TGI (SK-MEL-28 melanoma) [µM] | TGI (SNB-19 CNS) [µM] | TGI (MDA-N) [µM] | TGI (OVCAR-3 ovarian) [µM] | TGI (HCC-2998 colon) [µM] | TGI (HOP-92 NSCLC) [µM] | TGI (SK-MEL-5 melanoma) [µM] | TGI (SF-539 CNS) [µM] | TGI (MDA-MB-435) [µM] | TGI (IGROV1 ovarian) [µM] | TGI (CCRF-CEM leukemia) [µM] | TGI (NCI-H23 lung) [µM] | TGI (T-47D breast) [µM] | TGI (SF-268 CNS) [µM] | TGI (SK-MEL-2 melanoma) [µM] | TGI (NCI-H226 lung) [µM] | TGI (RXF 393 renal) [µM] | TGI (DU-145 prostate) [µM]
1 | COC(=O)c1ccccc1C1CN=NC12Cc1cc(C)cc(C)c1C2=O (centres undefined) | > 100 | > 100 | > 100 | > 100 | > 100 | > 100 | > 100 | > 100 | > 100 | > 100 | > 100 | > 100 | > 100 | > 100 | > 100 | > 100 | > 100 | > 100 | > 100 | > 100
2 | Cc1cc(O)c2c(c1)CC(O)C1=C2C(=O)c2c(O)ccc(OC3CC(O)C(OC4CC(OC5CCC(O)C(C)O5)C(O)C(C)O4)C(C)O3)c2C1=O (centres undefined) | 3.05 | 12.8 | 3.86 | 3.38 | 3.74 | 2.16 | 3.58 | 3.54 | 2.78 | 3.62 | 2.82 | 2.9 | 0.706 | 3.88 | 8.38 | 3.43 | 3.83 | 3.32 | 3.02 | 3.19
3 | Cc1ccc(C2SCC(=O)N2NC(=O)c2ccncc2)s1 (centres undefined) | > 100 | > 100 | > 100 | > 100 | > 100 | > 100 | > 100 | > 100 | > 100 | > 100 | > 100 | > 100 | > 100 | > 100 | > 100 | > 100 | > 100 | > 100 | > 100 | > 100
4 | O=C(c1ccccc1)C1C[C@H]2CO[C@H](c3ccccc3)N2C1=O (some centres undefined) | > 100 | > 100 | > 100 | > 100 | > 100 | > 100 | > 100 | > 100 | > 100 | > 100 | > 100 | > 100 | > 100 | > 100 | > 100 | > 100 | > 100 | > 100 | > 100 | > 100
5 | Cn1c(=O)c2c(nc3n(C)c(=O)c4ccccc4n23)n(C)c1=O | > 100 | > 100 | > 100 | > 100 | > 100 | > 100 | > 100 | > 100 | > 100 | > 100 | > 100 | > 100 | 44.9 | > 100 | > 100 | > 100 | > 100 | 58.7 | > 100 | > 83.6
6 | COC(=O)[C@H](COC(=O)/C=C/c1ccc(OC(C)=O)c(OC(C)=O)c1)NC(=O)/C=C/c1ccc(OC(C)=O)c(OC(C)=O)c1 | 31.9 | 49.7 | 94 | 35.8 | 38.8 | 33.5 | 36.6 | 49.3 | 31.6 | > 100 | 45.5 | 43 | > 100 | 47.6 | 14.4 |  | 35.2 | 56.7 | > 100 | 29.4
7 | O=C(c1cccs1)N(Cc1cccnc1)C(=S)N(Cc1cccnc1)C(=O)c1cccs1 | > 100 | > 100 | > 100 | > 100 | > 100 | > 100 | > 100 | > 100 | > 100 | 88.7 | > 100 |  | > 100 | > 100 | > 100 | > 100 | > 100 | > 100 | > 100 | > 100
8 | COC(=O)/C=C1/OC(c2ccc(C)cc2)=C(Cl)C1=O | 36.9 | 35 | 30.9 | 52.2 | 33.1 | 27.1 | 34.4 | 34.1 | 27.9 | 35.5 | 34.9 | 34.4 | 11.7 | 36.9 | 52.1 | 41.6 | 34.3 | 47.1 | 26.6 | 32.7
9 | Clc1ccc(-c2nnc(-c3c(Cl)c(Cl)c(Cl)c(Cl)c3-c3nc4ccccc4[nH]3)o2)cc1 | > 100 | > 100 | > 100 |  | > 100 | > 100 | > 100 | > 100 | > 100 | > 100 | > 100 | > 100 | > 100 | > 100 | > 100 | > 100 | > 100 | > 100 | > 100 | > 100
10 | COc1cccc(Nc2nc(N)nc(N)c2N=O)c1 | 38.8 | > 100 | 69.8 | > 100 | > 100 | > 100 | 34.4 | 40 | 39.1 | 35.7 | 39.9 | 94 | 93.4 | 31.5 | 24.3 | > 100 | > 100 | 90.9 | > 100 | 36.7
11 | CC1=C[C@@H]2[C@@H](CC(CO)=C[C@H]3[C@@H]4C(C)(C)[C@]4(OCC(C)C)[C@H](OCC(C)C)[C@@H](C)[C@]23O)C1=O | 3.2 | 8.23 | 3.38 | > 8.32 | 3.49 | 5.46 | 1.78 | > 5.57 | > 4.37 | 2.87 | > 6.31 | 4.8 | 8.12 | 5.81 | > 8.32 | > 8.32 | > 6.43 | > 4.53 | 3.69 | > 8.32
12 | COc1cccc(C2c3cc4c(cc3OC(N3CCCCC3)C2C)OCO4)c1OC (centres undefined) | 33.6 | 79.4 | 46.7 | > 100 | 47 | 20.7 | 33 | 37.9 | 21.5 | 33.9 | 33.8 | 61.7 | 15.2 | 71.3 | 54.2 | 48.4 | 26 | 34.8 | 28.2 | 25.5
13 | Cc1nnc2n1N=C(c1cc(F)c(Cl)cc1Cl)/C(=C/c1ccc3c(c1)OCO3)S2 | > 100 | > 100 | > 100 | > 100 | > 100 | > 100 | > 100 | > 100 | > 100 | > 100 | > 100 | > 100 | > 100 | > 100 | > 100 | > 100 | > 100 | > 100 | > 100 | > 100
14 | CCOP(=O)(OCC)C(F)(F)Cc1cnc(C)c2c1COC(C)(C)O2 | > 10 | > 10 | > 10 | > 10 | > 10 | > 10 | > 10 | > 10 | > 10 | > 10 | > 10 | > 10 | > 10 | > 10 | > 10 | > 10 | > 10 | > 10 | > 10 | > 10
15 | CC(C)NC(=O)OCc1c(COC(=O)NC(C)C)c(-c2ccc[n+](COC(=O)C(C)(C)C)c2)n2c1CCC2 | > 100 | > 100 | > 100 | > 100 | > 100 | > 100 | > 100 | > 100 | > 100 | > 100 | > 100 | > 100 | > 100 | > 100 | > 100 | > 100 | > 100 | > 100 | > 92.8 | > 100
16 | CC1c2cc(c3c(c2O)CN([C@@H](C)C2CCCCC2)CO3)C(C)c2cc(c3c(c2O)CN([C@@H](C)C2CCCCC2)CO3)C(C)c2cc(c3c(c2O)CN([C@@H](C)C2CCCCC2)CO3)C(C)c2cc1c1c(c2O)CN([C@@H](C)C2CCCCC2)CO1 (some centres undefined) | 3.86 | 4.04 | 3.55 | 3.44 | 3.04 | 2.93 | 2.82 | 2.85 | 3.46 |  | 3.62 | 2.61 | 1.45 |  | 3.23 | 2.85 | 6.2 | 2.22 | > 100 | 2.64
17 | O=c1c(=[n+]2ccc(=C([O-])c3ccccc3)cc2)/c(=N/S(=O)(=O)c2ccccc2)c(=O)c2ccccc12 | 3.73 | 33.7 | 8.8 | 26.7 | 3.27 | 13.6 | 23.7 | 21.1 | 4.87 | 25.9 | 3.1 | 23 | 6.11 | 12 | 12.9 | 25.7 | 8.63 | 30.8 | 25.2 | 26.8
18 | O=C1COCCN1C(=O)c1ccccc1Cl | > 100 | > 100 | > 100 | > 100 | > 100 | > 100 | > 100 | > 100 | > 100 | > 100 | > 100 | > 100 | > 100 | > 100 | > 100 | > 100 |  | > 100 | > 100 | > 100
19 | CCO/C=C(\C(=O)OC)S(=O)(=O)c1ccc(C)cc1 | > 100 | > 100 | > 100 | > 100 | > 100 | > 100 | > 100 | > 100 | > 100 | > 100 | > 100 | > 100 | > 100 | > 100 | > 100 | > 100 | > 100 | > 100 | > 100 | > 100
20 | O=c1/c(=C/c2ccc([N+](=O)[O-])o2)sc2n1[C@@H](c1ccc3c(c1)OCO3)C=C(c1cc(F)c(Cl)cc1Cl)N=2 | 34 | 43.8 | > 100 | 60.3 | 43.3 | 35.3 | 28.7 | 26.6 | 24 | > 100 | 35.3 | 33.4 | 10.5 | 46.8 | 59.3 | > 100 | 83 | > 100 | 43.2 | 79.8
21 | CC1C(O)Oc2cc3c(cc2C1c1ccccc1O)OCO3 (centres undefined) | > 100 | > 100 | 84 | > 100 | > 100 | 99 | > 100 | 47.2 | 98.5 | 79.2 | > 100 | > 100 | 51.2 | > 100 | > 100 | > 100 | 83.8 | 69.2 | 48.4 | > 100
22 | COc1cc2c(cc1OC)C(=O)/C(=C/c1ccc([N+](=O)[O-])cc1)CC2 | > 10 | > 10 | > 10 | > 10 | > 10 | > 10 | > 10 | > 10 | > 10 | > 10 | > 10 | > 10 | > 10 | > 10 | > 10 | > 10 | > 10 | > 10 | > 10 | > 10
